Results as given in ChEMBL document CHEMBL1121921, “Synthesis and evaluation of the male antifertility properties of a series of N-unsubstituted sulfamates” (1981).

Assays:
Format in all cases: functional
Rattus norvegicus [1] = assay: Compound was evaluated for male antifertility activity by oral administration in propylene glycol to male Sprague-Dawley rats for 14 consecutive days at dose of 0.36 mmol/kg
Rattus norvegicus [2] = assay: Compound was evaluated for male antifertility activity by oral administration in propylene glycol to male Sprague-Dawley rats for 14 consecutive days at dose of 0.40 mmol/kg
Rattus norvegicus [3] = assay: Compound was evaluated for male antifertility activity by oral administration in propylene glycol to male Sprague-Dawley rats for 14 consecutive days at dose of 0.04 mmol/kg
Rattus norvegicus [4] = assay: Compound was evaluated for male antifertility activity by oral administration in propylene glycol to male Sprague-Dawley rats for 14 consecutive days at dose of 0.09 mmol/kg
Rattus norvegicus [5] = assay: Compound was evaluated for male antifertility activity by oral administration in propylene glycol to male Sprague-Dawley rats for 14 consecutive days at dose of 0.07 mmol/kg
Rattus norvegicus [6] = assay: Compound was evaluated for male antifertility activity by oral administration in propylene glycol to male Sprague-Dawley rats for 14 consecutive days at dose of 0.05 mmol/kg
Rattus norvegicus [7] = assay: Compound was evaluated for male antifertility activity by oral administration in propylene glycol to male Sprague-Dawley rats for 14 consecutive days at dose of 0.30 mmol/kg
Rattus norvegicus [8] = assay: Compound was evaluated for male antifertility activity by oral administration in propylene glycol to male Sprague-Dawley rats for 14 consecutive days at dose of 0.43 mmol/kg
Rattus norvegicus [9] = assay: Compound was evaluated for male antifertility activity by oral administration in propylene glycol to male Sprague-Dawley rats for 14 consecutive days at dose of 0.64 mmol/kg
Rattus norvegicus [10] = assay: Compound was evaluated for male antifertility activity by oral administration in propylene glycol to male Sprague-Dawley rats for 14 consecutive days at dose of 0.34 mmol/kg
Rattus norvegicus [11] = assay: Compound was evaluated for male antifertility activity by oral administration in propylene glycol to male Sprague-Dawley rats for 14 consecutive days at dose of 0.18 mmol/kg
Rattus norvegicus [12] = assay: Compound was evaluated for male antifertility activity by oral administration in propylene glycol to male Sprague-Dawley rats for 14 consecutive days at dose of 0.68 mmol/kg

NS(=O)(=O)OC1CCCCC1OS(N)(=O)=O (stereo not drawn)
No. of implants/pregnancy (Rattus norvegicus [1]): 14
No. of males cohabited (Rattus norvegicus [1]): 5
No. of males fertile (Rattus norvegicus [1]): 5
No. of males mated (Rattus norvegicus [1]): 5
Resorbing implants (Rattus norvegicus [1]): 4.4%

NS(=O)(=O)OCCCCOS(N)(=O)=O
No. of males cohabited (Rattus norvegicus [2]): 5
No. of males fertile (Rattus norvegicus [2]): 0
No. of males mated (Rattus norvegicus [2]): 5
No. of implants/pregnancy (Rattus norvegicus [3]): 10.2
No. of males cohabited (Rattus norvegicus [3]): 5
No. of males fertile (Rattus norvegicus [3]): 5
No. of males mated (Rattus norvegicus [3]): 5
Resorbing implants (Rattus norvegicus [3]): 56%

CS(=O)(=O)OCCOS(C)(=O)=O [ETHANE DIMETHANE SULFONATE]
No. of males cohabited (Rattus norvegicus [4]): 5
No. of males fertile (Rattus norvegicus [4]): 0
No. of males mated (Rattus norvegicus [4]): 4
No. of implants/pregnancy (Rattus norvegicus [5]): 12.3
No. of males cohabited (Rattus norvegicus [5]): 5
No. of males fertile (Rattus norvegicus [5]): 3
No. of males mated (Rattus norvegicus [5]): 4
Resorbing implants (Rattus norvegicus [5]): 30.3%
No. of implants/pregnancy (Rattus norvegicus [6]): 9.9
No. of males cohabited (Rattus norvegicus [6]): 7
No. of males fertile (Rattus norvegicus [6]): 6
No. of males mated (Rattus norvegicus [6]): 7
Resorbing implants (Rattus norvegicus [6]): 35.2%

NS(=O)(=O)OCCCCCCCCCCOS(N)(=O)=O
No. of implants/pregnancy (Rattus norvegicus [7]): 12.5
No. of males cohabited (Rattus norvegicus [7]): 5
No. of males fertile (Rattus norvegicus [7]): 4
No. of males mated (Rattus norvegicus [7]): 5
Resorbing implants (Rattus norvegicus [7]): 17.3%

CC(OS(N)(=O)=O)C(C)OS(N)(=O)=O (stereo not drawn)
No. of implants/pregnancy (Rattus norvegicus [2]): 15
No. of males cohabited (Rattus norvegicus [2]): 4
No. of males fertile (Rattus norvegicus [2]): 3
No. of males mated (Rattus norvegicus [2]): 3
Resorbing implants (Rattus norvegicus [2]): 0%

NS(=O)(=O)OCCCOS(N)(=O)=O
No. of implants/pregnancy (Rattus norvegicus [8]): 9.3
No. of males cohabited (Rattus norvegicus [8]): 5
No. of males fertile (Rattus norvegicus [8]): 4
No. of males mated (Rattus norvegicus [8]): 5
Resorbing implants (Rattus norvegicus [8]): 73.6%
No. of implants/pregnancy (Rattus norvegicus [9]): 6.7
No. of males cohabited (Rattus norvegicus [9]): 5
No. of males mated (Rattus norvegicus [9]): 5
Resorbing implants (Rattus norvegicus [9]): 94.4%

CCCC(C)(COS(N)(=O)=O)COS(N)(=O)=O
No. of implants/pregnancy (Rattus norvegicus [10]): 15.5
No. of males cohabited (Rattus norvegicus [10]): 4
No. of males fertile (Rattus norvegicus [10]): 4
No. of males mated (Rattus norvegicus [10]): 4
Resorbing implants (Rattus norvegicus [10]): 12.5%

NS(=O)(=O)OCCOS(N)(=O)=O
No. of implants/pregnancy (Rattus norvegicus [11]): 10.8
No. of males cohabited (Rattus norvegicus [11]): 10
No. of males fertile (Rattus norvegicus [11]): 8
No. of males mated (Rattus norvegicus [11]): 9
Resorbing implants (Rattus norvegicus [11]): 40%
No. of implants/pregnancy (Rattus norvegicus [1]): 9.8
No. of males cohabited (Rattus norvegicus [1]): 8
No. of males fertile (Rattus norvegicus [1]): 1
No. of males mated (Rattus norvegicus [1]): 7
Resorbing implants (Rattus norvegicus [1]): 98.2%
No. of males cohabited (Rattus norvegicus [12]): 5
No. of males fertile (Rattus norvegicus [12]): 0
No. of males mated (Rattus norvegicus [12]): 5
